Measurements taken from patent US20260294857A1, “TREATMENT OF HYPOPARATHYROIDISM USING TRIPHENYL CALCILYTIC COMPOUNDS” (CALCILYTIX THERAPEUTICS, INC., priority 2023, published 2026).
Values belong to the compound of their own block, whether it stands above or below them.

Columns and labels:
[1] = target: T1, calcium-sensing receptor (CaSR) (Homo sapiens, UniProt P41180); test: Ongoing open-label phase 2 proof-of-principle study in women with post-surgical hypoparathyroidism (PSH), NCT05735015; type: in vivo
T1 construct: oral CLTX-305 (encaleret) in post-surgical hypoparathyroidism subjects; clinical safety and blood calcium endpoints
T1 sequence (P41180 20-1078): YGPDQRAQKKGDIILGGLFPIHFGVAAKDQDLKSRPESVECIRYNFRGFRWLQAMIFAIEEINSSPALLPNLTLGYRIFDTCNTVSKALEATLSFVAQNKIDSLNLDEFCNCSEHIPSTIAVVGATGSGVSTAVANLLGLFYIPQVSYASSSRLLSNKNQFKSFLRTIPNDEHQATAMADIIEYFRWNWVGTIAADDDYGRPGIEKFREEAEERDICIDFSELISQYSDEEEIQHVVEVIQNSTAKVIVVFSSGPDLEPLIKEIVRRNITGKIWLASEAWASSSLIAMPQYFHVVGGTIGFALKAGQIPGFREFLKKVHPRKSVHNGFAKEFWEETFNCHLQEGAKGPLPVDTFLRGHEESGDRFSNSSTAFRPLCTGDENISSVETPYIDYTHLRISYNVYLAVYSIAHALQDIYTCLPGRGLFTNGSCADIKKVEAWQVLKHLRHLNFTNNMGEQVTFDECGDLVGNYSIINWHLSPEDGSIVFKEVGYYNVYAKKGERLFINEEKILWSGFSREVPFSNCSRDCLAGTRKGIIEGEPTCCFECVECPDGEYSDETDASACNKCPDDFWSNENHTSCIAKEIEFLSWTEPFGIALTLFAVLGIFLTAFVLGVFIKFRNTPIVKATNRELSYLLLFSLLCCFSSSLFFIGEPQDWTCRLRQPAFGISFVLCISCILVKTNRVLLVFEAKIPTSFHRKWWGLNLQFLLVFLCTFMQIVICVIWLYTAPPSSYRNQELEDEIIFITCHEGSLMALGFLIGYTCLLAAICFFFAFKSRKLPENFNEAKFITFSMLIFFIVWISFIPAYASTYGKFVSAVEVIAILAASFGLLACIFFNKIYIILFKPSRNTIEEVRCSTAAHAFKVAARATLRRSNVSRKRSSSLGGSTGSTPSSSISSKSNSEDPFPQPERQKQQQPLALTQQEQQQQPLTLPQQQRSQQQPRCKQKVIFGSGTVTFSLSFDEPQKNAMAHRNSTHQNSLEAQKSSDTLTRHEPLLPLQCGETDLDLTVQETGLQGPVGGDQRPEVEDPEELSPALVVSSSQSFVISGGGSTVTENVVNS
Text: Title: Phase 2 study of the PTH-independent Effects of formula (I) (e.g., CLTX-305) on Mineral Homeostasis in subjects with post-surgical hypoparathyroidism (PSH).
Study Description: This will be a single-site, proof-of-principle, open-label study to explore the PTH-independent effects of formula (I) (e.g., CLTX-305) on calcium homeostasis in subjects with low or undetectable PTH levels as a result of neck surgery (PSH).
Primary Endpoint: Percent change in Fractional Excretion of Calcium (FECa) from baseline (Day −1) to the final day of treatment (Day 6 or the last measurement while on formula (I) (e.g., CLTX-305)). FECa calculated using fasting blood levels and spot urine collection.
Secondary Endpoints: Proportion of subjects who achieve a concomitant normal fasting blood calcium (albumin-corrected calcium >8.5 mg/dL) and a normal 24-hour urinary calcium level (<250 mg/24 hours for women, <300 mg/24 hours for men) on formula (I) (e.g., CLTX-305) at any point between day 1 and day 5.
• Change in blood iPTH comparing average baseline iPTH to average peak iPTH on formula (I) (e.g., CLTX-305). The average baseline iPTH will include all baseline iPTH levels from the screening visit, Day −1, and pre-dose on Day 1. The average peak iPTH will average the peak iPTH levels on every day the subject is on formula (I) (e.g., CLTX-305) (days 1 to 5). An increase in iPTH will be considered clinically significant if there is an increase both by 50% AND by more than […]. • Change in 1,25-(OH)2 Vitamin D on formula (I) (e.g., CLTX-305) comparing the maximal level prior to receiving calcitriol (On Days 3-5) to baseline (Average of Day 1 Pre-dose levels). Increase will be considered significant if there is an increase of more than 50%. Subjects who receive calcitriol prior to Day 3 will be excluded. • Percent change in Fractional Excretion of Calcium (FECa) from baseline […] to the final day of treatment (Day 6 or the last measurement while n encaleret). FECa calculated using fasting blood levels and spot urine collection. • Pharmacodynamic endpoints measured over 5 days of formula (I) (e.g., CLTX-305) therapy: • Blood iPTH—Absolute levels and change from baseline • Albumin-corrected blood calcium—Absolute levels and change from baseline • Ionized Calcium—Absolute levels and change from baseline • Urinary calcium clearance (fractional excretion and 24-hour total excretion)—Absolute levels and change from baseline • Serum levels of 1,25-(OH)2 Vitamin D—Absolute levels and change from baseline • Blood intact FGF23 (iFGF23) and C-terminal FGF23 (cFGF23)—Absolute levels and change from baseline • Urine cAMP and citrate—Absolute levels and change from baseline • Blood bone resorption marker, collagen cross-linked C-telopeptide (CTx)—Absolute levels and change from baseline • Blood bone formation marker, blood procollagen type 1 N-propeptide (P1NP)—Absolute levels and change from baseline • Change in components of urine including: supersaturation, sodium, potassium, calcium, magnesium, chloride, phosphorus, sulfate, citrate excretion, oxalate, pH, uric acid, creatinine, osmolality, ammonium, urea nitrogen, protein catabolic rate • PK parameters such as maximum plasma concentration Cmax), time to maximum plasma concentration (tmax), apparent terminal half-life (t½) • Subgroup analysis of other primary, secondary, and tertiary endpoints
Intervention: CLTX-305 will be provided as an oral film-coated tablet. Each tablet contains 54 mg of formula (I) on a salt-free and anhydrous basis (i.e., 60 mg of CLTX-305). Subjects will receive 3 tablets twice a day (BID).
The investigational medicinal product (IMP), formula (I) (e.g., CLTX-305), will be provided as film-coated tablets containing the active ingredient formula (I) on a salt-free and anhydrous basis provided in 54 mg dosage strength. Subjects will receive active ingredient formula (I) 162 mg (i.e., 180 mg CLTX-305) (3 tablets) BID per protocol with water. […]

osteoporosis = conditions: late phase trials; postmenopausal women with osteoporosis; cited from earlier work
[2] = tested on: calcium-sensing receptor (CaSR); conditions: individuals with functioning parathyroid tissue; calcilytics (e.g., CLTX-305); cited from earlier work
[3] = thiazide discontinuation before treatment; cited from earlier work

PTH after transient increase ([1]; after the 30 minutes increase, baseline 7.4 pg/mL, n=4): returned to near baseline levels
FECa, effect in words ([1]; first four participants with PSH): reduced FECa
Bone turnover markers ([1]; four women with PSH, 162 mg every 12 hours, up to 10 doses): normal and did not change
PTH, transient increase ([1]; mean (range), 30 minutes after the first dose, baseline 7.4 pg/mL (range 4.6-10.1; nl 15-65), n=4): 13.0 (4.5-18.1) pg/mL
Decrease in fractional excretion of calcium (FECa) ([1]; mean (range), fasting, 12 hours after last dose vs fasting baseline pre-dose, four women with PSH, CLTX-305 162 mg every 12 hours for up to 10 doses): 52% (34-78)
Albumin-corrected blood calcium ([1]; mean (range), fasting, 12 hours after last dose, baseline 8.4 mg/dL (range 8.1-8.6; nl 8.4-10.2), 162 mg every 12 hours, up to 10 doses, n=4): 9.3 (8.6-10.7) mg/dL
Urinary calcium excretion ([1]; mean (range), on treatment, baseline 348 mg/day (range 204-501; nl<250), 162 mg every 12 hours, up to 10 doses, n=4): 169 (76-350) mg/day
Participants who discontinued calcium supplementation to maintain eucalcemia ([1]; of four women with PSH, all received calcium supplementation initially): 1 participant
Participants who required re-initiation of low-dose calcitriol to maintain eucalcemia ([1]; of four women with PSH, calcitriol 0.25 mcg daily): 3
Normalization of urinary calcium excretion ([1]; of four women with PSH, nl<250 mg/day): 3 participants
24-hour urine calcium despite elevated blood calcium ([1]; one participant with mild hypercalcemia): < 200 mg/day
Time for which blood calcium continued to be mildly elevated after the last dose ([1]; one participant with mild hypercalcemia, calcium and calcitriol supplementation discontinued): 60 h
Decrease in urinary calcium excretion in the fourth participant ([1]; one participant without normalization, 162 mg every 12 hours, up to 10 doses): 30%
SMILES: Cc1cc(-c2ccccc2[C@@H](C)OC[C@H](O)CNC(C)(C)Cc2ccc(Cl)c(F)c2)ccc1C(=O)O [CLTX-305]
Serious adverse events ([1]; four women with PSH): no serious adverse events reported
Treatment-related adverse events (AEs) ([1]; four women with PSH): mild hypercalcemia causing headache in 1 participant
Bone mineral density (BMD) efficacy (osteoporosis): failed to demonstrate efficacy on endpoints of bone mineral density (BMD)
Blood calcium levels, in words [2]: increased blood calcium levels
PTH secretion [2]: increase PTH secretion
Urinary calcium excretion, in words [2]: decrease urinary calcium excretion

SMILES: NS(=O)(=O)c1cc2c(cc1Cl)N=CNS2(=O)=O [chlorothiazide]
5 half-lives [3]: 10 h

SMILES: NS(=O)(=O)c1cc(C2(O)NC(=O)c3ccccc32)ccc1Cl (stereo not shown) [chlorthalidone]
5 half-lives [3]: 300 h

SMILES: NS(=O)(=O)c1cc2c(cc1Cl)NCNS2(=O)=O [hydrochlorothiazide]
5 half-lives [3]: 75 h
